The target in the series is HBV. As to conditions: ASO.

The results in this text go back to the OligoGym collection.

Values joined by “and” are separate entries in the source; they are usually repeats but may differ in a detail not shown here. Equal entries are not always repeated. HELM strings list units from the 5' end as sugar, base in round brackets, then linkage (d deoxyribose, r ribose, m 2'-O-methyl, p phosphodiester). Methylation of C is not given here. [moe] = 2'-O-(2-methoxyethyl) (MOE); [cEt] = constrained ethyl (cEt); [sp] = phosphorothioate linkage

On to “RNA1{[moe](A)[sp].[moe](G)[sp].d(G)[sp].d(T)[sp].d(G)[sp].d(A)[sp].d(A)[sp].d(G)[sp].d(C)[sp].d(G)[sp].d(A)[sp].[moe](A)[sp].[moe](G)[sp].[moe](T)[sp].[moe](G)[sp].[moe](C)}$$$$V2.0”, for which the target mRNA inhibition (HepG2, 0.07 µM) is 70% and 60%.

In the case of “RNA1{[moe](G)[sp].[moe](A)[sp].[moe](A)[sp].[moe](G)[sp].[moe](C)[sp].d(G)[sp].d(A)[sp].d(A)[sp].d(G)[sp].d(T)[sp].d(G)[sp].d(C)[sp].d(A)[sp].d(C)[sp].[moe](A)[sp].[moe](C)[sp].[moe](G)}$$$$V2.0”, the target mRNA inhibition (HepG2, 0.07 µM) is 80% and 58%.

As to “RNA1{[moe](G)[sp].[moe](A)[sp].[moe](A)[sp].[moe](G)[sp].d(C)[sp].d(G)[sp].d(A)[sp].d(A)[sp].d(G)[sp].d(T)[sp].d(G)[sp].d(C)[sp].d(A)[sp].[moe](C)[sp].[moe](A)[sp].[moe](C)[sp].[moe](G)}$$$$V2.0”, the target mRNA inhibition (HepG2, 0.07 µM) was 65% and 57%.

Regarding “RNA1{[moe](A)[sp].[moe](A)[sp].d(G)[sp].d(C)[sp].d(G)[sp].d(A)[sp].d(A)[sp].d(G)[sp].d(T)[sp].d(G)[sp].d(C)[sp].[moe](A)[sp].[moe](C)[sp].[moe](A)[sp].[moe](C)[sp].[moe](G)[sp].[moe](G)}$$$$V2.0”, the target mRNA inhibition by setting is: (HepG2, 0.0092593 µM) 11%; (HepG2, 0.0277778 µM) 27%; (HepG2, 0.07 µM) 88% and 80%; (HepG2, 0.0833333 µM) 58%; (HepG2, 0.25 µM) 80%.

For “RNA1{[moe](A)[sp].[moe](C)[sp].[moe](T)[sp].d(G)[sp].d(G)[sp].d(A)[sp].d(G)[sp].d(C)[sp].d(C)[sp].d(A)[sp].d(C)[sp].d(C)[sp].d(A)[sp].[cEt](G)[sp].[cEt](C)[sp].[cEt](A)}$$$$V2.0”, the target mRNA inhibition (HepG2, 0.07 µM) was 64% and 73%.

In the case of “RNA1{[moe](T)[sp].[cEt](G)[sp].d(C)[sp].d(A)[sp].d(G)[sp].d(A)[sp].d(G)[sp].d(G)[sp].d(T)[sp].d(G)[sp].d(A)[sp].d(A)[sp].[cEt](G)[sp].[moe](C)[sp].[cEt](G)[sp].[moe](A)}$$$$V2.0”, the target mRNA inhibition is 5% (HepG2, 0.0092593 µM); 39% (HepG2, 0.0277778 µM); 77% and 86% (HepG2, 0.07 µM); 70% (HepG2, 0.0833333 µM); 85% (HepG2, 0.25 µM).

In the case of “RNA1{[moe](G)[sp].[moe](A)[sp].d(A)[sp].d(G)[sp].d(C)[sp].d(G)[sp].d(A)[sp].d(A)[sp].d(G)[sp].d(T)[sp].d(G)[sp].[moe](C)[sp].[moe](A)[sp].[moe](C)[sp].[moe](A)[sp].[moe](C)[sp].[moe](G)}$$$$V2.0”, the target mRNA inhibition (HepG2, 0.07 µM) is 79% and 74%.

In the case of “RNA1{[moe](A)[sp].[moe](G)[sp].d(G)[sp].d(A)[sp].d(G)[sp].d(T)[sp].d(T)[sp].d(C)[sp].d(C)[sp].d(G)[sp].d(C)[sp].[moe](A)[sp].[moe](G)[sp].[moe](T)[sp].[moe](A)[sp].[moe](T)}$$$$V2.0”, the target mRNA inhibition (HepG2, 0.07 µM) was 50% and 37%.

In the case of “RNA1{[moe](G)[sp].[moe](T)[sp].[moe](T)[sp].d(C)[sp].d(C)[sp].d(G)[sp].d(C)[sp].d(A)[sp].d(G)[sp].d(T)[sp].d(A)[sp].d(T)[sp].[moe](G)[sp].[moe](G)[sp].[moe](A)[sp].[moe](T)[sp].[moe](C)}$$$$V2.0”, the target mRNA inhibition (HepG2, 0.07 µM) is 60% and 54%.

Turning to “RNA1{[moe](A)[sp].[moe](C)[sp].[moe](T)[sp].[moe](G)[sp].[moe](G)[sp].[moe](A)[sp].d(G)[sp].d(C)[sp].d(C)[sp].d(A)[sp].d(C)[sp].d(C)[sp].d(A)[sp].d(G)[sp].d(C)[sp].[moe](A)[sp].[moe](G)}$$$$V2.0”, the target mRNA inhibition (HepG2, 0.07 µM) was 66% and 46%.

Take “RNA1{[moe](C)[sp].[moe](G)[sp].[moe](C)[sp].d(A)[sp].d(G)[sp].d(T)[sp].d(A)[sp].d(T)[sp].d(G)[sp].d(G)[sp].d(A)[sp].d(T)[sp].d(C)[sp].[cEt](G)[sp].[cEt](G)[sp].[cEt](C)}$$$$V2.0”: the target mRNA inhibition is 0% (HepG2, 0.0092593 µM); 50% (HepG2, 0.0277778 µM); 85% and 84% (HepG2, 0.07 µM); 74% (HepG2, 0.0833333 µM); 81% (HepG2, 0.25 µM).

With “RNA1{[moe](G)[sp].[moe](T)[sp].[moe](T)[sp].d(C)[sp].d(C)[sp].d(G)[sp].d(C)[sp].d(A)[sp].d(G)[sp].d(T)[sp].d(A)[sp].d(T)[sp].d(G)[sp].[cEt](G)[sp].[cEt](A)[sp].[cEt](T)}$$$$V2.0”, the target mRNA inhibition (HepG2, 0.07 µM) was 52% and 67%.

As for “RNA1{[moe](C)[sp].[moe](G)[sp].[moe](A)[sp].d(A)[sp].d(C)[sp].d(C)[sp].d(A)[sp].d(C)[sp].d(T)[sp].d(G)[sp].d(A)[sp].d(A)[sp].d(C)[sp].[cEt](A)[sp].[cEt](A)[sp].[cEt](A)}$$$$V2.0”, the target mRNA inhibition (HepG2, 0.07 µM) was 41% and 54%.

On to “RNA1{[moe](T)[sp].[moe](T)[sp].[moe](A)[sp].d(T)[sp].d(G)[sp].d(C)[sp].d(C)[sp].d(T)[sp].d(A)[sp].d(C)[sp].d(A)[sp].d(G)[sp].d(C)[sp].[cEt](C)[sp].[cEt](T)[sp].[cEt](C)}$$$$V2.0”, for which the target mRNA inhibition (HepG2, 0.07 µM) is 37% and 53%.

Regarding “RNA1{[moe](T)[sp].[moe](G)[sp].d(C)[sp].d(A)[sp].d(G)[sp].d(A)[sp].d(G)[sp].d(G)[sp].d(T)[sp].d(G)[sp].d(A)[sp].[moe](A)[sp].[moe](G)[sp].[moe](C)[sp].[moe](G)[sp].[moe](A)}$$$$V2.0”, the target mRNA inhibition (HepG2, 0.07 µM) is 46% and 36%.

For “RNA1{[moe](A)[sp].[moe](A)[sp].[moe](C)[sp].d(C)[sp].d(A)[sp].d(C)[sp].d(T)[sp].d(G)[sp].d(A)[sp].d(A)[sp].d(C)[sp].d(A)[sp].[moe](A)[sp].[moe](A)[sp].[moe](T)[sp].[moe](G)[sp].[moe](G)}$$$$V2.0”, the target mRNA inhibition (HepG2, 0.07 µM) is 57% and 51%.

For the substance “RNA1{[moe](T)[sp].[moe](T)[sp].[moe](C)[sp].[moe](C)[sp].[moe](G)[sp].d(C)[sp].d(A)[sp].d(G)[sp].d(T)[sp].d(A)[sp].d(T)[sp].d(G)[sp].d(G)[sp].d(A)[sp].[moe](T)[sp].[moe](C)[sp].[moe](G)}$$$$V2.0”, the target mRNA inhibition (HepG2, 0.07 µM) is 65% and 59%.

Turning to “RNA1{[moe](C)[sp].[moe](T)[sp].[moe](G)[sp].[moe](G)[sp].d(A)[sp].d(G)[sp].d(C)[sp].d(C)[sp].d(A)[sp].d(C)[sp].d(C)[sp].d(A)[sp].d(G)[sp].[moe](C)[sp].[moe](A)[sp].[moe](G)}$$$$V2.0”, under “HepG2, 0.07 µM”, the target mRNA inhibition is 57% and 60%.

For “RNA1{[moe](C)[sp].[moe](A)[sp].[moe](A)[sp].d(T)[sp].d(T)[sp].d(T)[sp].d(A)[sp].d(T)[sp].d(G)[sp].d(C)[sp].d(C)[sp].d(T)[sp].[moe](A)[sp].[moe](C)[sp].[moe](A)[sp].[moe](G)[sp].[moe](C)}$$$$V2.0”, the target mRNA inhibition (HepG2, 0.07 µM) was 33% and 41%.

Regarding “RNA1{[moe](A)[sp].[moe](C)[sp].d(G)[sp].d(G)[sp].d(G)[sp].d(C)[sp].d(A)[sp].d(A)[sp].d(C)[sp].d(A)[sp].d(T)[sp].[moe](A)[sp].[moe](C)[sp].[moe](C)[sp].[moe](T)[sp].[moe](T)}$$$$V2.0”, the target mRNA inhibition (HepG2, 0.07 µM) was 61% and 42%.

With “RNA1{[moe](C)[sp].[moe](T)[sp].[moe](G)[sp].d(G)[sp].d(A)[sp].d(G)[sp].d(C)[sp].d(C)[sp].d(A)[sp].d(C)[sp].d(C)[sp].d(A)[sp].[moe](G)[sp].[moe](C)[sp].[moe](A)[sp].[moe](G)}$$$$V2.0”, under “HepG2, 0.07 µM”, the target mRNA inhibition was 42% and 38%.

With “RNA1{[moe](C)[sp].[moe](C)[sp].[moe](G)[sp].[moe](C)[sp].[moe](A)[sp].d(G)[sp].d(T)[sp].d(A)[sp].d(T)[sp].d(G)[sp].d(G)[sp].d(A)[sp].d(T)[sp].d(C)[sp].[moe](G)[sp].[moe](G)}$$$$V2.0”, the target mRNA inhibition (HepG2, 0.07 µM) was 75% and 71%.

As to “RNA1{[moe](A)[sp].[cEt](A)[sp].[cEt](G)[sp].d(T)[sp].d(C)[sp].d(C)[sp].d(A)[sp].d(C)[sp].d(C)[sp].d(A)[sp].d(C)[sp].d(G)[sp].d(A)[sp].[cEt](G)[sp].[cEt](T)[sp].[moe](C)}$$$$V2.0”, the target mRNA inhibition (HepG2, 0.07 µM) was 59% and 46%.

Take “RNA1{[moe](G)[sp].[cEt](G)[sp].d(C)[sp].d(A)[sp].d(T)[sp].d(A)[sp].d(G)[sp].d(C)[sp].d(A)[sp].d(G)[sp].d(C)[sp].d(A)[sp].[cEt](G)[sp].[moe](G)[sp].[cEt](A)[sp].[moe](T)}$$$$V2.0”: under “HepG2, 0.07 µM”, the target mRNA inhibition is 74% and 75%.

“RNA1{[moe](A)[sp].[moe](G)[sp].[moe](T)[sp].d(C)[sp].d(C)[sp].d(A)[sp].d(C)[sp].d(C)[sp].d(A)[sp].d(C)[sp].d(G)[sp].d(A)[sp].d(G)[sp].[cEt](T)[sp].[cEt](C)[sp].[cEt](T)}$$$$V2.0”: the target mRNA inhibition (HepG2, 0.07 µM) was 35% and 29%.

“RNA1{[moe](A)[sp].[moe](G)[sp].[moe](T)[sp].[moe](T)[sp].[moe](C)[sp].d(C)[sp].d(G)[sp].d(C)[sp].d(A)[sp].d(G)[sp].d(T)[sp].d(A)[sp].d(T)[sp].d(G)[sp].[moe](G)[sp].[moe](A)[sp].[moe](T)}$$$$V2.0”: under “HepG2, 0.07 µM”, the target mRNA inhibition is 56% and 49%.

Take “RNA1{[moe](G)[sp].[moe](A)[sp].[moe](A)[sp].d(G)[sp].d(T)[sp].d(C)[sp].d(C)[sp].d(A)[sp].d(C)[sp].d(C)[sp].d(A)[sp].d(C)[sp].d(G)[sp].[cEt](A)[sp].[cEt](G)[sp].[cEt](T)}$$$$V2.0”: the target mRNA inhibition (HepG2, 0.07 µM) is 34% and 33%.

In the case of “RNA1{[moe](G)[sp].[moe](T)[sp].[moe](T)[sp].d(C)[sp].d(C)[sp].d(G)[sp].d(C)[sp].d(A)[sp].d(G)[sp].d(T)[sp].d(A)[sp].d(T)[sp].[moe](G)[sp].[moe](G)[sp].[moe](A)[sp].[moe](T)}$$$$V2.0”, the target mRNA inhibition (HepG2, 0.07 µM) is 51% and 65%.

Regarding “RNA1{[moe](C)[sp].[moe](C)[sp].d(A)[sp].d(C)[sp].d(T)[sp].d(G)[sp].d(A)[sp].d(A)[sp].d(C)[sp].d(A)[sp].d(A)[sp].[moe](A)[sp].[moe](T)[sp].[moe](G)[sp].[moe](G)[sp].[moe](C)}$$$$V2.0”, the target mRNA inhibition is 8% (HepG2, 0.0092593 µM); 27% (HepG2, 0.0277778 µM); 74% and 70% (HepG2, 0.07 µM); 54% (HepG2, 0.0833333 µM); 76% (HepG2, 0.25 µM).
